Data taken from patent publication US8148403B2, “Substituted piperidyl-propane-thiols” (Boehringer Ingelheim International GmbH, priority 2006, dated 2012).

**Q.** For `CCc1c(C2CCN(CCCSc3ccc(F)cc3)CC2)c2ccc(F)cc2n1-c1nc(C)ccc1O` [Example 3], which melting point is on record?
**A.** 142 °C
